In patent publication US9113629B2, “4-amino-6-(4-substituted-phenyl)-picolinates and 6-amino-2-(4-substituted-phenyl)-pyrimidine-4-carboxylates and their use as herbicides” (DOW AGROSCIENCES LLC, priority 2013, dated 2015):
Read-outs that look alike come from different tables or passages of the source.

Columns and labels:
[1] = tested on: Key Broadleaf Weed and Crop Species; assay: Post-emergent Test II herbicidal activity (Table 5); format: in vivo; details: post-emergence, 336 h, 14 days after application; for pest or weed control at 70 g/ha: application rate 70 g ai/ha; for pest or weed control at 140 g/ha: application rate 140 g ai/ha
In short: (§1)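 Post-emergence foliar spray, 187 L/ha, track sprayer at 43 cm above canopy. Carrier: acetone/water/IPA/DMSO/Atplus 411F/Triton X-155. Plants at 1st–2nd true leaf; subirrigated afterwards; % injury scored visually at 14 d.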

[2] = tested on: Key Grass and Sedge Weeds as well as Grass Crops; assay: Post-emergent Test II herbicidal activity (Table 6); format: in vivo; details: post-emergence, 336 h; for pest or weed control at 70 g/ha: 70 g ai/ha; for pest or weed control at 140 g/ha: 140 g ai/ha
In short: as §1

[3] = ABUTH: velvetleaf (Abutilon theophrasti), read-out: Visual Growth Reduction (%) 14 Days After Application, ABUTH
[4] = AMARE: redroot pigweed (Amaranthus retroflexus), read-out: Visual Growth Reduction (%) 14 Days After Application, AMARE
[5] = BRSNN: oilseed-rape, canola (Brassica napus), read-out: Visual Growth Reduction (%) 14 Days After Application, BRSNN
[6] = CHEAL: lambsquarters (Chenopodium album), read-out: Visual Growth Reduction (%) 14 Days After Application, CHEAL
[7] = EPHHL: wild poinsettia (Euphorbia heterophylla), read-out: Visual Growth Reduction (%) 14 Days After Application, EPHHL
[8] = HELAN: sunflower (Helianthus annuus), read-out: Visual Growth Reduction (%) 14 Days After Application, HELAN
[9] = VIOTR: wild pansy (Viola tricolor), read-out: Visual Growth Reduction (%) 14 Days After Application, VIOTR
[10] = CYPES: yellow nutsedge (Cyperus esculentus), read-out: Visual Growth Reduction (%) 14 Days After Application, CYPES
[11] = DIGSA: crabgrass (Digitaria sanguinalis), read-out: Visual Growth Reduction (%) 14 Days After Application, DIGSA
[12] = ECHCG: barnyardgrass (Echinochloa crus-galli), read-out: Visual Growth Reduction (%) 14 Days After Application, ECHCG
[13] = ORYSA: rice (Oryza sativa), crop, read-out: Visual Growth Reduction (%) 14 Days After Application, ORYSA
[14] = SETFA: giant foxtail (Setaria faberi), read-out: Visual Growth Reduction (%) 14 Days After Application, SETFA
[15] = SORVU: grain sorghum (Sorghum vulgare), read-out: Visual Growth Reduction (%) 14 Days After Application, SORVU
[16] = TRZSS (wheat, Triticum aestivum), crop, read-out: Visual Growth Reduction (%) 14 Days After Application, TRZSS
[17] = ZEAMX: maize, corn (Zea mays), crop, read-out: Visual Growth Reduction (%) 14 Days After Application, ZEAMX

COC(=O)c1nc(-c2ccccc2)c(F)c(N)c1Cl [Compound 181]
pest or weed control at 70 g/ha [1, 3]: 95 to 100% | pest or weed control at 140 g/ha [1, 3]: 95 to 100% | pest or weed control at 70 g/ha [1, 4]: 85 to 94% | pest or weed control at 140 g/ha [1, 4]: 95 to 100% | pest or weed control at 70 g/ha [1, 5]: 85 to 94% | pest or weed control at 140 g/ha [1, 5]: 95 to 100% | pest or weed control at 70 g/ha [1, 6]: 95 to 100% | pest or weed control at 140 g/ha [1, 6]: 95 to 100% | pest or weed control at 70 g/ha [1, 7]: 85 to 94% | pest or weed control at 140 g/ha [1, 7]: 95 to 100% | pest or weed control at 70 g/ha [1, 8]: 95 to 100% | pest or weed control at 140 g/ha [1, 8]: 95 to 100% | pest or weed control at 70 g/ha [1, 9]: 0 to 29% | pest or weed control at 140 g/ha [1, 9]: 0 to 29% | pest or weed control at 70 g/ha [2, 10]: 95 to 100% | pest or weed control at 140 g/ha [2, 10]: 95 to 100% | pest or weed control at 70 g/ha [2, 11]: 0 to 29% | pest or weed control at 140 g/ha [2, 11]: 0 to 29% | pest or weed control at 70 g/ha [2, 12]: 0 to 29% | pest or weed control at 140 g/ha [2, 12]: 0 to 29% | pest or weed control at 70 g/ha [2, 13]: 0 to 29% | pest or weed control at 140 g/ha [2, 13]: 0 to 29% | pest or weed control at 70 g/ha [2, 14]: 0 to 29% | pest or weed control at 140 g/ha [2, 14]: 0 to 29% | pest or weed control at 70 g/ha [2, 15]: 0 to 29% | pest or weed control at 140 g/ha [2, 15]: 30 to 44% | pest or weed control at 70 g/ha [2, 16]: 0 to 29% | pest or weed control at 140 g/ha [2, 16]: 0 to 29% | pest or weed control at 70 g/ha [2, 17]: 0 to 29% | pest or weed control at 140 g/ha [2, 17]: 30 to 44%

COC(=O)c1nc(-c2ccc(C#N)c(F)c2)c(F)c(N)c1Cl [Compound 135, methyl 4-amino-3-chloro-6-(4-cyano-3-fluorophenyl)-5-fluoropicolinate]
pest or weed control at 70 g/ha [1, 3]: 95 to 100% | pest or weed control at 140 g/ha [1, 3]: 95 to 100% | pest or weed control at 70 g/ha [1, 4]: 95 to 100% | pest or weed control at 140 g/ha [1, 4]: 95 to 100% | pest or weed control at 70 g/ha [1, 5]: 60 to 74% | pest or weed control at 140 g/ha [1, 5]: 60 to 74% | pest or weed control at 70 g/ha [1, 6]: 95 to 100% | pest or weed control at 140 g/ha [1, 6]: 95 to 100% | pest or weed control at 70 g/ha [1, 7]: 95 to 100% | pest or weed control at 140 g/ha [1, 7]: 95 to 100% | pest or weed control at 70 g/ha [1, 8]: 95 to 100% | pest or weed control at 140 g/ha [1, 8]: 95 to 100% | pest or weed control at 70 g/ha [1, 9]: 60 to 74% | pest or weed control at 140 g/ha [1, 9]: 60 to 74% | pest or weed control at 70 g/ha [2, 10]: 85 to 94% | pest or weed control at 140 g/ha [2, 10]: 95 to 100% | pest or weed control at 70 g/ha [2, 11]: 60 to 74% | pest or weed control at 140 g/ha [2, 11]: 75 to 84% | pest or weed control at 70 g/ha [2, 12]: 95 to 100% | pest or weed control at 140 g/ha [2, 12]: 95 to 100% | pest or weed control at 70 g/ha [2, 13]: 0 to 29% | pest or weed control at 140 g/ha [2, 13]: 0 to 29% | pest or weed control at 70 g/ha [2, 14]: 60 to 74% | pest or weed control at 140 g/ha [2, 14]: 75 to 84% | pest or weed control at 70 g/ha [2, 15]: 75 to 84% | pest or weed control at 140 g/ha [2, 15]: 85 to 94% | pest or weed control at 70 g/ha [2, 16]: 30 to 44% | pest or weed control at 140 g/ha [2, 16]: 30 to 44% | pest or weed control at 70 g/ha [2, 17]: 75 to 84% | pest or weed control at 140 g/ha [2, 17]: 75 to 84%

N#Cc1ccc(-c2nc(C(=O)O)c(Cl)c(N)c2F)cc1F [Compound 156]
pest or weed control at 70 g/ha [1, 3]: 60 to 74% | pest or weed control at 140 g/ha [1, 3]: 75 to 84% | pest or weed control at 70 g/ha [1, 4]: 95 to 100% | pest or weed control at 140 g/ha [1, 4]: 95 to 100% | pest or weed control at 70 g/ha [1, 5]: 75 to 84% | pest or weed control at 140 g/ha [1, 5]: 85 to 94% | pest or weed control at 70 g/ha [1, 6]: 95 to 100% | pest or weed control at 140 g/ha [1, 6]: 95 to 100% | pest or weed control at 70 g/ha [1, 7]: 85 to 94% | pest or weed control at 140 g/ha [1, 7]: 85 to 94% | pest or weed control at 70 g/ha [1, 8]: 95 to 100% | pest or weed control at 140 g/ha [1, 8]: 95 to 100% | pest or weed control at 70 g/ha [1, 9]: 60 to 74% | pest or weed control at 140 g/ha [1, 9]: 60 to 74% | pest or weed control at 70 g/ha [2, 10]: 60 to 74% | pest or weed control at 140 g/ha [2, 10]: 85 to 94% | pest or weed control at 70 g/ha [2, 11]: 60 to 74% | pest or weed control at 140 g/ha [2, 11]: 75 to 84% | pest or weed control at 70 g/ha [2, 12]: 75 to 84% | pest or weed control at 140 g/ha [2, 12]: 85 to 94% | pest or weed control at 70 g/ha [2, 13]: 0 to 29% | pest or weed control at 140 g/ha [2, 13]: 0 to 29% | pest or weed control at 70 g/ha [2, 14]: 85 to 94% | pest or weed control at 140 g/ha [2, 14]: 95 to 100% | pest or weed control at 70 g/ha [2, 15]: 60 to 74% | pest or weed control at 140 g/ha [2, 15]: 60 to 74% | pest or weed control at 70 g/ha [2, 16]: 45 to 59% | pest or weed control at 140 g/ha [2, 16]: 60 to 74% | pest or weed control at 70 g/ha [2, 17]: 75 to 84% | pest or weed control at 140 g/ha [2, 17]: 75 to 84%
